# Source: US4283381A, “Triiodinated aminoacetamido isophthalamide x-ray contrast agents” (Schering Aktiengesellschaft, priority 1979, dated 1981)
# Columns and labels:
# [1] = Iodine content of salt; assay type: physicochemical
# [2] = Viscosity of solution with 300 mg iodine/ml, 37° C.; assay type: physicochemical
# [3] = Molarity (and thus osmotic pressure) of solution with 300 mg iodine; assay type: physicochemical; conditions: 300 mg iodine/ml
# [4] = tested on: Mouse (20 g); test: LD50 mouse, intravenous injection; assay type: in vivo; conditions: solution 300 mg iodine/ml, injection rate 2 ml/min
# Protocol: (§1) LD50 on mice and rats was determined after intravenous injection of
# (§2) the solutions containing 300 mg iodine/ml with an injection rate of 2
# [5] = tested on: Rat (100 g); test: LD50 rat, intravenous injection; assay type: in vivo; conditions: solution 300 mg iodine/ml, injection rate 2 ml/min
# Protocol: as §1, §2
Structure (SMILES),Iodine content of salt [1],"Viscosity of solution with 300 mg iodine/ml, 37° C. in centipoises [2]",Molarity of solution with 300 mg iodine [3],LD50 Mouse (20 g) g iodine/kg [4],LD50 Rat (100 g) g iodine/kg [5]
"NCC(=O)Nc1c(I)c(C(=O)NCCO)c(I)c(C(=O)NCCO)c1I [A-Iothalamate, 5-aminoacetamido-2,4,6-triiodoisophthalic acid bis(2-hydroxyethyl)amide iothalamate]",58%,2.4 centipoises,0.394 mol/L,≥ 10.5 g iodine/kg,≥ 10 g iodine/kg
"CN(CC(O)CO)C(=O)c1c(I)c(NC(=O)CN)c(I)c(C(=O)N(C)CC(O)CO)c1I (centres unmarked) [B-Amidotrizoate, 5-amidoacetamido-2,4,6-isophthalic acid bis(N-methyl-2,3-dihydroxypropyl) diamide amidotrizoate]",54%,3.5 centipoises,0.394 mol/L,,≥ 10 g iodine/kg
CC(=O)Nc1c(I)c(NC(C)=O)c(I)c(C(=O)O)c1I [Megl. Amidotrizoate],47%,5.0 centipoises,0.787 mol/L,,7.5 g iodine/kg
CNC(=O)c1c(I)c(NC(C)=O)c(I)c(C(=O)O)c1I [Megl. Iothalamate],47%,5.2 centipoises,0.787 mol/L,4.5 g iodine/kg,7.4 g iodine/kg
CNC(=O)c1c(I)c(NC(C)=O)c(I)c(C(=O)O)c1I [Na-Iothalamate],60%,2.7 centipoises,0.787 mol/L,8.0 g iodine/kg,7.0 g iodine/kg
